Data published in patent US8247211B2, “Glycopeptide antibiotics” (American Cyanamid Company, priority 2001, dated 2012).
Converted amounts (≈) assume the structure as drawn.

Tests used:
Experiment in all cases: In vitro antibacterial evaluation: minimum inhibitory concentration (MIC), broth dilution method
Format in all cases: cell-based
Enterococcus sp. = settings: 18 hours at 35° C.
Method in brief: (§1)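 Broth dilution per NCCLS M7-A2 in Muller-Hinton II […], inoculum 5×10^5 CFU/mL, antibiotic tested over 64-0.06 μg/mL. MIC is taken as the lowest concentration that inhibits growth. Panel includes recent clinical isolates resistant to methicillin, penicillin and/or vancomycin.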

Escherichia coli = settings: 18 hours at 35° C.
Method in brief: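 NCCLS M7-A2 broth dilution with Mueller-Hinton II, testing 64-0.06 μg/mL antibiotic against 5×10^5 CFU/mL inocula. Test strains include recent methicillin-, penicillin- or vancomycin-resistant clinical isolates. MIC is the lowest concentration preventing growth.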

Staphylococcus sp. = system: Staphylococcus sp.
Method in brief: as §1

Streptococcus sp. = settings: 18 hours at 35° C.
Method in brief: as §1

[1] = broth dilution, inoculum 5×10^5 CFU/mL

MIC Enterococcus avium (GC 4558) (Enterococcus sp.; Enterococcus avium (GC 4558)): 2 µg/mL (≈ 1.4 µM)
MIC Enterococcus faecalis (ATCC 29212) (Enterococcus sp.; Enterococcus faecalis (ATCC 29212)): 2 µg/mL (≈ 1.4 µM)
MIC Enterococcus faecalis (GC 2242) (Enterococcus sp.; Enterococcus faecalis (GC 2242)): 2 µg/mL (≈ 1.4 µM)
MIC Enterococcus faecalis (GC 2691) (Enterococcus sp.; Enterococcus faecalis (GC 2691)): 2 µg/mL (≈ 1.4 µM)
MIC Enterococcus faecalis (GC 3059) (Enterococcus sp.; Enterococcus faecalis (GC 3059)): 2 µg/mL (≈ 1.4 µM)
MIC Enterococcus faecalis (GC 4552) (Enterococcus sp.; Enterococcus faecalis (GC 4552)): 2 µg/mL (≈ 1.4 µM)
MIC Enterococcus faecalis (GC 4553) (Enterococcus sp.; Enterococcus faecalis (GC 4553)): 2 µg/mL (≈ 1.4 µM)
MIC Enterococcus faecalis (GC 4554) (Enterococcus sp.; Enterococcus faecalis (GC 4554)): 2 µg/mL (≈ 1.4 µM)
MIC Enterococcus faecalis (GC 6189) (Enterococcus sp.; Enterococcus faecalis (GC 6189)): 2 µg/mL (≈ 1.4 µM)
MIC Enterococcus faecium (GC 2243) (Enterococcus sp.; Enterococcus faecium (GC 2243)): 1 µg/mL (≈ 0.7 µM)
MIC Enterococcus faecium (GC 4556) (Enterococcus sp.; Enterococcus faecium (GC 4556)): 2 µg/mL (≈ 1.4 µM)
MIC Enterococcus faecium (GC 4557) (Enterococcus sp.; Enterococcus faecium (GC 4557)): 2 µg/mL (≈ 1.4 µM)
MIC Enterococcus avium (GC 4558) (Enterococcus sp.; [1]): 2 µg/mL (≈ 1.4 µM)
MIC Enterococcus faecalis (ATCC 29212) (Enterococcus sp.; [1]): 2 µg/mL (≈ 1.4 µM)
MIC Enterococcus faecalis (GC 2242) (Enterococcus sp.; [1]): 2 µg/mL (≈ 1.4 µM)
MIC Enterococcus faecalis (GC 2691) (Enterococcus sp.; [1]): 2 µg/mL (≈ 1.4 µM)
MIC Enterococcus faecalis (GC 3059) (Enterococcus sp.; [1]): 2 µg/mL (≈ 1.4 µM)
MIC Enterococcus faecalis (GC 4552) (Enterococcus sp.; [1]): 2 µg/mL (≈ 1.4 µM)
MIC Enterococcus faecalis (GC 4553) (Enterococcus sp.; [1]): 2 µg/mL (≈ 1.4 µM)
MIC Enterococcus faecalis (GC 4554) (Enterococcus sp.; [1]): 2 µg/mL (≈ 1.4 µM)
MIC Enterococcus faecalis (GC 6189) (Enterococcus sp.; [1]): 2 µg/mL (≈ 1.4 µM)
MIC Enterococcus faecium (GC 2243) (Enterococcus sp.; [1]): 1 µg/mL (≈ 0.7 µM)
MIC Enterococcus faecium (GC 4556) (Enterococcus sp.; [1]): 2 µg/mL (≈ 1.4 µM)
MIC Enterococcus faecium (GC 4557) (Enterococcus sp.; [1]): 2 µg/mL (≈ 1.4 µM)
MIC Escherichia coli (ATCC 25922) (Escherichia coli; Escherichia coli (ATCC 25922)): 64 µg/mL (≈ 44.8 µM)
MIC Escherichia coli (GC 4559) (Escherichia coli; Escherichia coli (GC 4559)): 64 µg/mL (≈ 44.8 µM)
MIC Escherichia coli (GC 4560) (Escherichia coli; Escherichia coli (GC 4560)): 2 µg/mL (≈ 1.4 µM)
MIC Staphylococcus aureus (ATCC 29213) (Staphylococcus sp.; strain ATCC 29213): 2 µg/mL (≈ 1.4 µM)
MIC Staphylococcus aureus (GC 1131) (Staphylococcus sp.; strain GC 1131): 1 µg/mL (≈ 0.7 µM)
MIC Staphylococcus aureus (GC 3051) (Staphylococcus sp.; strain GC 3051): 32 µg/mL (≈ 22.4 µM)
MIC Staphylococcus aureus (GC 3053) (Staphylococcus sp.; strain GC 3053): 2 µg/mL (≈ 1.4 µM)
MIC Staphylococcus aureus (GC 4541) (Staphylococcus sp.; strain GC 4541): 2 µg/mL (≈ 1.4 µM)
MIC Staphylococcus aureus (GC 4542) (Staphylococcus sp.; strain GC 4542): 1 µg/mL (≈ 0.7 µM)
MIC Staphylococcus aureus-SMITH (GC 4543) (Staphylococcus sp.; strain GC 4543): 0.5 µg/mL (≈ 0.35 µM)
MIC Staphylococcus aureus (GC 4544) (Staphylococcus sp.; strain GC 4544): 1 µg/mL (≈ 0.7 µM)
MIC Staphylococcus aureus (GC 4545) (Staphylococcus sp.; strain GC 4545): 2 µg/mL (≈ 1.4 µM)
MIC Coagulase Negative Staphylococcus (GC 4547) (Staphylococcus sp.; strain GC 4547): 1 µg/mL (≈ 0.7 µM)
MIC Coagulase Negative Staphylococcus (GC 4548) (Staphylococcus sp.; strain GC 4548): 1 µg/mL (≈ 0.7 µM)
MIC Coagulase Negative Staphylococcus (GC 4549) (Staphylococcus sp.; strain GC 4549): 0.5 µg/mL (≈ 0.35 µM)
MIC Coagulase Negative Staphylococcus (GC 4551) (Staphylococcus sp.; strain GC 4551): 1 µg/mL (≈ 0.7 µM)
MIC Streptococcus agalactiae (GC 4564) (Streptococcus sp.; Streptococcus agalactiae (GC 4564)): <0.12 µg/mL
MIC Streptococcus pneumoniae (ATCC 6301) (Streptococcus sp.; Streptococcus pneumoniae (ATCC 6301)): <0.12 µg/mL
MIC Streptococcus pneumoniae (GC 1894) (Streptococcus sp.; Streptococcus pneumoniae (GC 1894)): <0.12 µg/mL
MIC Streptococcus pneumoniae (GC 4565) (Streptococcus sp.; Streptococcus pneumoniae (GC 4565)): <0.12 µg/mL
MIC Streptococcus pyogenes (GC 4563) (Streptococcus sp.; Streptococcus pyogenes (GC 4563)): <0.12 µg/mL
MIC Streptococcus agalactiae (GC 4564) (Streptococcus sp.; [1]): <0.12 µg/mL
MIC Streptococcus pneumoniae (ATCC 6301) (Streptococcus sp.; [1]): <0.12 µg/mL
MIC Streptococcus pneumoniae (GC 1894) (Streptococcus sp.; [1]): <0.12 µg/mL
MIC Streptococcus pneumoniae (GC 4565) (Streptococcus sp.; [1]): <0.12 µg/mL
MIC Streptococcus pyogenes (GC 4563) (Streptococcus sp.; [1]): <0.12 µg/mL
Compound: CC(c1ccccc1)C1NC(=O)CNC(=O)C(CO)NC(=O)C(C(O)C2CNC(=N)N2C2OC(CO)C(O)C(O)C2O)NC(=O)C(C(O)C2CNC(=N)N2)NC(=O)C(Cc2ccc(OC3OC(CO)C(OC4OC5COC6(CC7CCC6(C)C7(C)C)OC5C(O)C4O)C(O)C3O)cc2)NC1=O (stereo not drawn) [Example 214, Cyclo[glycyl-β-methylphenylalanyl-O-[4-O-[4,6-O-(1,7,7-trimethylbicyclo[2.2.1]hept-2-ylidene)hexopyranosyl]hexopyranosyl]tyrosyl-3-(2-iminoimidazolidin-4-yl)seryl-3-(3-hexopyranosyl-2-iminoimidazolidin-4-yl)serylseryl]]
MIC Staphylococcus haemolyticus (GC 4546) (Staphylococcus sp.; strain GC 4546): 1 µg/mL (≈ 0.7 µM)
